Each block holds one compound with its values, some of them ahead of it. Residues, ends and D or L forms follow the SMILES beside them.
Columns and labels:
[1] = Sweetening potency: taste comparison of aqueous solutions with sucrose control solution (2%, 5% or 10%) by a group of eight experienced people; type: in vivo
Text: The sweetening potency of the compounds described in the examples has been evaluated by a group of eight experienced people. For this, the compound, in aqueous solution at varying concentrations, is compared, with respect to taste, to a control solution of sucrose of concentration 2%, 5%, or 10%. The sweetening potency of the test compound compared with sucrose then corresponds to the weight ratio between the compound and sucrose for equal sweetening intensity, i.e. when the sweet tastes of the solution of the test compound and the control solution of sucrose are considered by a majority of people to have the same sweetening intensity.

[2] = Sweetening comparison with aspartame (equivalent sweetness of solutions / soft drink); type: in vivo; details: for concentration of aqueous solution of equivalent sweetening potency: 20 mg/L compound equivalent to 550 mg/L aspartame; for quantity of sweetening agent in one liter of soft drink for replacement: identical organoleptic qualities
Experimental: From the fact of their high sweetening potency, another advantage of the compounds of the invention compared to aspartame is to allow, in their application to food products, the use of very low quantities of active agent. It is therefore for example that it is possible to replace, in one liter of soft drink, 550 mg of aspartame by about 20 mg of the N-(3,3-dimethylbutyl)-L-aspartyl-D-α-aminobutyric acid N--(S)-1-phenyl-1-propanamide of the invention, and to therefore reduce by about 27 times the quantities of sweetening agent consumed, always in maintaining the identical organoleptic qualities.

[3] = Accelerated ageing in neutral medium (phosphate buffer pH 7, 70° C.), HPLC of product remaining; type: physicochemical; details: for half-life: phosphate buffer, read-out: half-life (time corresponding to 50% degradation) (converted)
Experimental: (§1) The stability of the compounds of the invention and aspartame was measured by determining, using high performance liquid chromatography (HPLC), the amount of product remaining after an accelerated ageing in acidic medium (phosphate buffer at pH 3) or in neutral medium (phosphate buffer at pH 7) and at the temperature of 70° C. The stability of the compound thus tested is evaluated by its half-life (time corresponding to 50% degradation).
Given in the annexed FIG. 2 is a comparative diagram of the stability curves of aspartame (curve 1) and of the N-(3,3-dimethylbutyl)-L-aspartyl-D-α-aminobutyric acid N--(S)-1-phenyl-1-propanamide of the invention (curve 2) obtained during an accelerated ageing by heating their solutions in neutral media of pH 7 at 70° C.

[4] = cited from earlier work
[5] = Accelerated ageing in acidic medium (phosphate buffer pH 3, 70° C.), HPLC of product remaining; type: physicochemical; details: aqueous solution, read-out: half-life (time corresponding to 50% degradation) (converted)
Experimental: as §1
Given in the annexed FIG. 1 is a comparative diagram of the stability curves of aspartame (curve 1) and of the N--(3,3-dimethylbutyl)-L-aspartyl-D-α-aminobutyric acid N--(S)-1-phenyl-1-propanamide of the present invention (curve 2) obtained during an accelerated ageing by heating their solutions in acidic medium at pH 3 (phosphate buffer) at 70° C.

[6] = with respect to a 2% sucrose solution

Structure (SMILES): CC[C@@H](NC(=O)[C@H](CC(=O)O)NCCC(C)(C)C)C(=O)N[C@@H](C)c1ccccc1 [Y = C2 H5, R" = (S) CH(CH3)C6 H5]
- Sweetening potency [1, 6]: 2,000 times that of sucrose on a wei

Structure (SMILES): CC[C@@H](NC(=O)[C@H](CC(=O)O)NCCC(C)(C)C)C(=O)N[C@@H](COC)c1ccccc1 [N-(3,3-dimethylbutyl)-L-aspartyl-D-α-aminobutyric acid N--(S)-1-phenyl-2-methoxy-1-ethanamide]
- Sweetening potency [1, 6]: about 4,000 times that of sucrose on a weight basis
- Sweetening potency ([1]; with respect to a 2% sucrose solution, listed as Y = C2 H5, R" = (R) CH(CH2 OCH3)C6 H5): 4,000 times that of sucrose on a wei

- stability in neutral solution ([3]; neutral solution, pH about 7): very little stable
- half-life ([3]; pH 7, 70° C.): 0.167 h
- half-life [5]: ~24 h
Structure (SMILES): COC(=O)[C@H](Cc1ccccc1)NC(=O)[C@@H](N)CC(=O)O [aspartame, L-aspartyl-L-phenylalanine methyl ester, reference compound] (HELM PEPTIDE1{D.F.[CO[*:1]]}$$$$V2.0)
- concentration of aqueous solution of equivalent sweetening potency [2]: 550 µg/mL
- quantity of sweetening agent in one liter of soft drink for replacement [2]: 550 mg
- sweetening potency (prior art) ([4]; aspartame, background, sucrose concentration not stated): 120 to 180 times that of sucrose on a weight basis

- stability compared with aspartame ([3]; pH 7, 70° C., ratio to aspartame): about 1,700 times
- half-life ([3]; pH 7, 70° C.): ~288 h
- half-life [5]: ~72 h
Structure (SMILES): CC[C@H](NC(=O)[C@@H](CC)NC(=O)[C@H](CC(=O)O)NCCC(C)(C)C)c1ccccc1 [N-(3,3-dimethylbutyl)-L-aspartyl-D-α-aminobutyric acid N--(S)-1-phenyl-1-propanamide]
- Sweetening potency ([1]; by comparison with a 5% solution of sucrose): ~6,000 times that of sucrose on a wei
- Sweetening potency ([1]; by comparison with a 10% solution of sucrose): ~5,000 times that of sucrose on a wei
- Sweetening potency ([1]; with respect to a 2% sucrose solution, listed as Y = C2 H5, R" = (S) CH(C2 H5) C6 H5): 8,000 times that of sucrose on a wei
- concentration of aqueous solution of equivalent sweetening potency [2]: 20 µg/mL
- sweetening potency compared with aspartame ([2]; 20 mg/L of compound vs 550 mg/L of aspartame, aqueous solution): about 27 times
- quantity of sweetening agent in one liter of soft drink for replacement [2]: about 20 mg
- reduction of quantity of sweetening agent consumed vs aspartame ([2]; soft drink, vs aspartame): about 27 times

Structure (SMILES): COC[C@H](NC(=O)[C@H](NC(=O)[C@H](CC(=O)O)NCCC(C)(C)C)C(C)C)c1ccccc1 [N-(3,3-dimethylbutyl)-L-aspartyl-D-valine N--(S)-1-phenyl-2-methoxy-1-ethanamide]
- Sweetening potency [1, 6]: about 4,000 times that of sucrose on a weight basis
- Sweetening potency ([1]; with respect to a 2% sucrose solution, listed as Y = (CH3)2 CH, R" = (R) CH(CH2 OCH3)C6 H5): 4,000 times that of sucrose on a wei

Structure (SMILES): CC[C@H](NC(=O)[C@H](NC(=O)[C@H](CC(=O)O)NCCC(C)(C)C)C(C)C)c1ccccc1 [N-(3,3-dimethylbutyl)-L-aspartyl-D-valine N--(S)-1-phenyl-1-propanamide]
- Sweetening potency [1, 6]: about 3,000 times that of sucrose on a weight basis
- Sweetening potency ([1]; with respect to a 2% sucrose solution, listed as Y = (CH3)2 CH, R" = (S) CH(C2 H5) C6 H5): 3,000 times that of sucrose on a wei

Structure (SMILES): C[C@@H](NC(=O)[C@H](CC(=O)O)NCCC(C)(C)C)C(=O)NC(C1CC1)C1CC1 [N-(3,3-dimethylbutyl)-L-aspartyl-N-(dicyclopropylcarbinyl)-D-alaninamide]
- sweetening potency (prior art, FR 92 13615) [4, 6]: 2,500 times that of sucrose on a weight basis

From patent US5997933A, “N-(3,3-dimethylbutyl)-L-aspartyl-D-α-aminoalkanoic acid N-(S)-1-phenyl-1-alkanamide useful as a sweetening agent” (priority 1996, dated 1999)
